The supplement of paper PMC10307832

The cell lines below were run with COC1=CC=C(C=C1)COC2=C(C=C(C=C2)CC3=CN=C(N=C3N)N)OC [GW-2580] + Cc1nc(NC(=O)N2CCC[C@H]2C(N)=O)sc1-c1ccnc(C(C)(C)C(F)(F)F)c1 [Alpelisib] (partner 2 µM) (assay: relative viability (nuclei count vs DMSO), 5 days (fraction); higher = more cells survive). Settings: first compound 0.8 µM.
Procedure, shortened: (§1)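 Medians of duplicate plates are given as relative viability. That measure is the nuclei count in treated wells divided by the count in vehicle wells. Counts were taken on 4× images of lung cancer cell lines in 1536-well plates, 5 days after pin-tool dosing the day after seeding with one drug alone or a fixed anchor-drug dose plus five library-drug doses (not always all listed) in √10 steps.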

Cell Line	relative viability
NCI-H727	0.594
EBC-1	1
NCI-H1703	0.334
NCI-H1993	0.677
SW 1573	0.797
NCI-H838	1.06
LCLC-103H	1.11
NCI-H520	0.988
NCI-H2126	0.772
EMC-BAC-2	0.777
NCI-H2085	0.924
Calu-6	0.964
HCC-366	0.575
NCI-H1666	1.21
NCI-H596	0.525
LK-2	1.21
NCI-H2087	0.999

Cell Line	relative viability
SK-MES-1	0.907
H3255	0.846
COR-L23	0.83
COR-L 105	1.28
IA-LM	0.725
LOU-NH91	0.756
NCI-H2170	0.842
NCI-H2405	0.718
HOP-62	1.01
HCC-44	0.759
A549	0.688
LU99A	0.522
BEN	1.07
HCC-78	0.363
NCI-H1395	0.941
NCI-H1299	1.04
NCI-H1793	0.679

Same assay, conditions: first compound 2.53 µM

Cell Line	relative viability
NCI-H727	0.615
EBC-1	0.746
NCI-H1703	0.323
SW 1573	0.698
NCI-H838	1.15
LCLC-103H	0.961
NCI-H520	0.837
NCI-H2126	0.719
EMC-BAC-2	0.686
NCI-H2085	0.924
Calu-6	0.902
HCC-366	0.43
NCI-H1666	1
NCI-H596	0.516
LK-2	0.849
NCI-H2087	1.02
SK-MES-1	0.94

Cell Line	relative viability
H3255	0.686
COR-L23	0.611
COR-L 105	0.946
IA-LM	0.656
LOU-NH91	0.635
NCI-H2170	0.741
NCI-H2405	0.751
HOP-62	0.694
HCC-44	0.691
A549	0.721
LU99A	0.354
BEN	1.04
HCC-78	0.28
NCI-H1395	1.03
NCI-H1299	1.04
NCI-H1793	0.634

Same assay, conditions: first compound 8 µM

Cell Line	relative viability
NCI-H727	0.453
EBC-1	0.887
NCI-H1703	0.331
NCI-H1993	0.704
SW 1573	0.674
NCI-H838	1.07
LCLC-103H	0.954
NCI-H520	0.966
NCI-H2126	0.714
EMC-BAC-2	0.787
NCI-H2085	0.792
Calu-6	1.07
HCC-366	0.355
NCI-H1666	1.03
NCI-H596	0.471
LK-2	1.38
NCI-H2087	0.613

Cell Line	relative viability
SK-MES-1	0.885
H3255	0.676
COR-L23	0.815
COR-L 105	0.902
IA-LM	0.883
LOU-NH91	0.688
NCI-H2170	0.902
NCI-H2405	0.751
HOP-62	1.07
HCC-44	0.775
A549	0.764
LU99A	0.528
BEN	1.03
HCC-78	0.304
NCI-H1395	1.01
NCI-H1299	1.07
NCI-H1793	0.775

Each cell line was assayed with Cc1cnc(Nc2ccc(OCCN3CCCC3)cc2)nc1Nc1cccc(S(=O)(=O)NC(C)(C)C)c1 [Fedratinib] + CCNC(=O)c1noc(-c2cc(C(C)C)c(O)cc2O)c1-c1ccc(CN2CCOCC2)cc1 [Luminespib] (partner 0.01 µM) in the same assay as above. Settings: first compound 0.1 µM.
Procedure, shortened: as §1

Cell Line	relative viability
NCI-H2342	0.695
NCI-H1623	0.703
NCI-H727	0.269
NCI-H1993	0.679
SW 1573	0.548
NCI-H838	0.454
LCLC-103H	0.9
NCI-H520	0.265
NCI-H2126	0.929
EMC-BAC-2	1.27
NCI-H2085	0.415
NCI-H1666	0.92
NCI-H596	0.962
LK-2	0.173
NCI-H2087	0.17
SK-MES-1	0.741

Cell Line	relative viability
H3255	0.913
COR-L23	0.816
COR-L 105	0.753
LOU-NH91	0.323
ChaGo-K-1	0.61
NCI-H2170	0.651
NCI-H2405	0.57
HOP-62	0.958
HCC-44	1.01
NCI-H522	1.14
LU99A	0.271
BEN	0.312
SW 900	0.147
NCI-H1395	0.661
NCI-H1793	0.174

Same assay, conditions: first compound 0.3162 µM

Cell Line	relative viability
NCI-H2342	0.874
NCI-H1623	0.485
NCI-H727	0.301
NCI-H1650	0.186
NCI-H1993	0.85
SW 1573	0.26
NCI-H838	0.379
LCLC-103H	0.946
NCI-H520	0.194
NCI-H2126	0.962
EMC-BAC-2	1.12
NCI-H2085	0.463
NCI-H1666	0.977
NCI-H596	1.2
LK-2	0.169
NCI-H2087	0.18

Cell Line	relative viability
SK-MES-1	0.773
H3255	0.932
COR-L23	0.671
COR-L 105	0.743
LOU-NH91	0.4
ChaGo-K-1	0.548
NCI-H2170	0.677
NCI-H2405	0.701
HOP-62	0.924
HCC-44	0.974
NCI-H522	1.21
LU99A	0.302
BEN	0.248
SW 900	0.171
NCI-H1395	0.868
NCI-H1793	0.163

Same assay, conditions: first compound 1 µM

Cell Line	relative viability
NCI-H2342	0.837
NCI-H1623	0.505
NCI-H727	0.375
NCI-H1650	0.2
NCI-H1993	1.1
SW 1573	0.145
NCI-H838	0.334
LCLC-103H	0.937
NCI-H520	0.23
NCI-H2126	0.834
EMC-BAC-2	1.18
NCI-H2085	0.408
NCI-H1666	1.01
NCI-H596	0.875
LK-2	0.186
NCI-H2087	0.14

Cell Line	relative viability
SK-MES-1	0.609
H3255	0.59
COR-L23	0.602
COR-L 105	0.78
LOU-NH91	0.33
ChaGo-K-1	0.561
NCI-H2170	0.648
NCI-H2405	0.562
HOP-62	0.908
HCC-44	0.972
NCI-H522	1.14
LU99A	0.216
BEN	0.263
SW 900	0.167
NCI-H1395	0.62
NCI-H1793	0.204

Each cell line was assayed with Cc1cnc(Nc2ccc(OCCN3CCCC3)cc2)nc1Nc1cccc(S(=O)(=O)NC(C)(C)C)c1 [Fedratinib] + COc1cccc2cc(-c3nc([C@H]4CC[C@H](C(=O)O)CC4)n4ncnc(N)c34)[nH]c12 [OSI-027] (partner 0.5 µM) in the same assay as above. Settings: first compound 0.1 µM.
Procedure, shortened: as §1

Cell Line	relative viability
NCI-H2342	0.615
NCI-H1623	0.438
NCI-H727	0.504
NCI-H1993	0.519
SW 1573	0.564
NCI-H838	0.31
LCLC-103H	0.415
NCI-H520	0.255
NCI-H2126	0.757
EMC-BAC-2	0.323
NCI-H2085	0.586
HCC-366	0.802
NCI-H1666	0.837
NCI-H596	0.577
LK-2	0.157
NCI-H2087	0.486
NCI-H1648	0.221

Cell Line	relative viability
SK-MES-1	0.544
H3255	0.521
COR-L23	0.741
COR-L 105	0.633
LOU-NH91	0.669
ChaGo-K-1	0.431
NCI-H2170	0.688
NCI-H2405	0.601
HOP-62	0.849
HCC-44	0.482
NCI-H522	0.629
LU99A	0.254
BEN	0.267
SW 900	0.522
HCC-78	0.366
NCI-H1395	0.553
NCI-H1793	0.237

Same assay, conditions: first compound 0.3162 µM

Cell Line	relative viability
NCI-H2342	0.65
NCI-H1623	0.48
NCI-H727	0.674
NCI-H1650	0.69
NCI-H1993	0.522
SW 1573	0.635
NCI-H838	0.471
LCLC-103H	0.454
NCI-H520	0.253
NCI-H2126	0.736
EMC-BAC-2	0.387
NCI-H2085	0.855
HCC-366	0.886
NCI-H1666	0.793
NCI-H596	0.727
LK-2	0.184
NCI-H2087	0.453
NCI-H1648	0.263

Cell Line	relative viability
SK-MES-1	0.6
H3255	0.671
COR-L23	0.714
COR-L 105	0.649
LOU-NH91	0.72
ChaGo-K-1	0.577
NCI-H2170	0.723
NCI-H2405	0.618
HOP-62	0.647
HCC-44	0.544
NCI-H522	0.825
LU99A	0.328
BEN	0.297
SW 900	0.539
HCC-78	0.381
NCI-H1395	0.694
NCI-H1793	0.271

Same assay, conditions: first compound 1 µM

Cell Line	relative viability
NCI-H2342	0.559
NCI-H1623	0.38
NCI-H727	0.534
NCI-H1650	0.515
NCI-H1993	0.524
SW 1573	0.394
NCI-H838	0.259
LCLC-103H	0.404
NCI-H520	0.216
NCI-H2126	0.704
EMC-BAC-2	0.351
NCI-H2085	0.711
HCC-366	0.849
NCI-H1666	0.898
NCI-H596	0.746
LK-2	0.16
NCI-H2087	0.425
NCI-H1648	0.269

Cell Line	relative viability
SK-MES-1	0.436
H3255	0.565
COR-L23	0.596
COR-L 105	0.497
LOU-NH91	0.664
ChaGo-K-1	0.504
NCI-H2170	0.596
NCI-H2405	0.61
HOP-62	0.719
HCC-44	0.362
NCI-H522	0.566
LU99A	0.272
BEN	0.27
SW 900	0.35
HCC-78	0.362
NCI-H1395	0.545
NCI-H1793	0.234
